TGI and GI50 data for 18 compounds are collected here from PubChem BioAssay (NCI).

Molecules are shown by their SMILES. Values joined by “and” are separate entries in the source; they are usually repeats but may differ in a detail not shown here. Identical values can stand only once.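 Results reflect a 48-hour exposure of cells in 96-well plates to compound at five concentrations. GI50 is the concentration that inhibits growth by half. TGI marks complete inhibition of growth.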

Among the test systems are DLD-1 colon; DMS 273 small cell lung; HOP-18 NSCLC; KM20L2 colon; LXFL 529 NSCLC; SNB-78 CNS; XF 498 CNS; RXF-631 renal; MDA-N.
Assay in all cases: inhibition of tumour cell growth, NCI panel, 48 h

In the case of `CCOc1ccc(NC(=O)C(=O)C(C(=O)c2ccc3ccccc3c2)C2OC(=O)c3ccccc32)cc1` (stereo not drawn), the TGI is 30.1 µM with DLD-1 colon; 47 µM in the assay on DMS 273 small cell lung; 78.1 µM with HOP-18 NSCLC; above 100 µM in the assay on KM20L2 colon; 37.4 µM with LXFL 529 NSCLC; 64.9 µM in the assay on SNB-78 CNS. Besides, the TGI in the assay on XF 498 CNS turned out to be 60.6 µM.

On to `CCCCCCCCC/C=C1\CCC(CN(C)C)C1=O` (stereo not drawn), for which the TGI in the assay with DLD-1 colon was determined as 4.28 µM; in the assay with DMS 273 small cell lung, 3.25 µM; with KM20L2 colon, 4.66 µM; in the assay with LXFL 529 NSCLC, 2.64 µM; in the assay on RXF-631 renal, 4.53 µM; in the assay on SNB-78 CNS, 5.03 µM.

With `Oc1c(Cl)c(Cl)c(O)c2c1CCCC2`, in the assay on MDA-N, the TGI was determined as 31.1 µM.

`COc1ccc(NC(=S)c2ccoc2C)cc1CC(=O)OC(C)C`: the TGI with MDA-N is above 100 µM.

Take `CNC(=O)OCc1c2ccncc2c(C)c2c1[nH]c1ccc(OC)cc12`: the TGI in the assay with DMS 273 small cell lung is above 100 µM; in the assay with HOP-18 NSCLC it was 0.738 µM; in the assay with KM20L2 colon it was 0.799 µM; in the assay on LXFL 529 NSCLC it was 0.37 µM; in the assay with RXF-631 renal, above 100 µM; in the assay on SNB-78 CNS, 0.681 µM. In the assay with XF 498 CNS, the TGI was above 100 µM.

As to `C[C@]12CCC(=O)CC1CCCC2=O` (stereo partly drawn), the TGI in the assay with DLD-1 colon, in the assay with DMS 273 small cell lung, in the assay with LXFL 529 NSCLC, with RXF-631 renal, in the assay on SNB-78 CNS and in the assay on XF 498 CNS was above 100 µM each time.

In the case of `CCOC(=O)/C(O)=C(/C(=O)OC)c1ccc(Cl)cc1`, the TGI with DLD-1 colon, in the assay with DMS 273 small cell lung, with KM20L2 colon, in the assay with LXFL 529 NSCLC, in the assay on RXF-631 renal and with SNB-78 CNS was above 100 µM throughout. The TGI with XF 498 CNS was above 100 µM.

In the case of `CCCN(CCC)C(=O)C(=O)c1c(N)[nH]n(-c2ccccc2)c1=O`, the TGI with DLD-1 colon, in the assay on DMS 273 small cell lung, with HOP-18 NSCLC, in the assay on KM20L2 colon, in the assay with LXFL 529 NSCLC and with RXF-631 renal was above 100 µM throughout. Moreover, the TGI in the assay with SNB-78 CNS and in the assay with XF 498 CNS was above 100 µM in each case.

As for `CN(C)C(=O)c1ccc([N+](=O)[O-])cc1`, the TGI in the assay on DLD-1 colon, with DMS 273 small cell lung, with KM20L2 colon, with LXFL 529 NSCLC and in the assay with SNB-78 CNS was above 100 µM in each case.

Take `COc1cccc(NC(=O)CC(=O)N2N=C(N3c4ccccc4Sc4ccccc43)CC2c2ccccc2)c1` (stereo not drawn): the TGI was above 100 µM in the assay with DLD-1 colon; 62.2 µM with HOP-18 NSCLC; above 100 µM in the assay on KM20L2 colon; above 100 µM with LXFL 529 NSCLC; above 100 µM in the assay with SNB-78 CNS; above 100 µM in the assay on XF 498 CNS.

Consider `CC(=O)[CH-]C(=O)c1ccccc1.CC(=O)[CH-]C(=O)c1ccccc1.CC(=O)[CH-]C(=O)c1ccccc1.[In+3]`, for which the GI50 with DLD-1 colon was 24.4 µM; with HOP-18 NSCLC, 43.5 µM; in the assay with KM20L2 colon, 39.4 µM; in the assay on LXFL 529 NSCLC, 25.5 µM. The TGI was above 100 µM in the assay with DLD-1 colon, 77.1 µM in the assay with HOP-18 NSCLC, above 100 µM in the assay on KM20L2 colon and above 100 µM in the assay with LXFL 529 NSCLC.

As for `O=c1c(O)c(-c2ccc(O)c(O)c2)oc2cc(O)cc(O)c12`, the TGI with DLD-1 colon, in the assay with DMS 273 small cell lung, in the assay on HOP-18 NSCLC, in the assay on KM20L2 colon, with LXFL 529 NSCLC and in the assay with RXF-631 renal was above 100 µM throughout. The TGI in the assay with SNB-78 CNS and in the assay with XF 498 CNS was above 100 µM in each case.

With `CN1CCc2[nH]nc(-c3n[nH]c4c3CN(C)CC4)c2C1`, in the assay on MDA-N, the TGI is above 100 µM.

Consider `COc1cc(C2c3cc4c(cc3[C@@H](NCCN3CCOCC3)C3COC(=O)[C@H]23)OCO4)cc(OC)c1O` (stereo partly drawn), for which the TGI in the assay on DLD-1 colon was 22.8 µM and > 17.5 µM; in the assay with DMS 273 small cell lung, 7.72 µM and 5.44 µM; in the assay on HOP-18 NSCLC, 32.9 µM and > 17.5 µM; in the assay with KM20L2 colon, 16.7 µM and > 17.5 µM; in the assay on LXFL 529 NSCLC, 34.1 µM and > 17.5 µM; in the assay on SNB-78 CNS, above 75 µM.

For `N#CNC(=NCCc1c[nH]c2ccccc12)Oc1ccccc1`, the TGI with DLD-1 colon is above 100 µM; with DMS 273 small cell lung, above 100 µM; in the assay on KM20L2 colon it was 49.8 µM; in the assay with LXFL 529 NSCLC, above 100 µM; in the assay on SNB-78 CNS, above 100 µM; with XF 498 CNS, above 100 µM.

For the compound `COC(=O)C(CC1=C(O)Nc2ccccc2N1)/C(=N/NC(N)=O)C(=O)Nc1ccccc1C` (stereo not drawn), the TGI in the assay with DLD-1 colon was above 100 µM; in the assay with DMS 273 small cell lung, 36.9 µM; with HOP-18 NSCLC, above 100 µM; in the assay with KM20L2 colon, above 100 µM; in the assay with LXFL 529 NSCLC, above 100 µM; with SNB-78 CNS, above 100 µM.

On to `O=C1/C(=N\O)S(=O)(=O)c2ccccc21`, for which the TGI in the assay on DLD-1 colon, with DMS 273 small cell lung, in the assay on HOP-18 NSCLC, in the assay with KM20L2 colon, in the assay with LXFL 529 NSCLC and with RXF-631 renal was above 100 µM in each case. The compound further displayed a TGI in the assay with SNB-78 CNS above 100 µM.

`COC1=C(C)C(=O)c2c(cc3c(c2O)C(C)(CCC=C(C)C)C(C)O3)C1=O` (stereo not drawn): the TGI with DLD-1 colon was above 100 µM; in the assay on DMS 273 small cell lung it was above 86.4 µM; in the assay with HOP-18 NSCLC, above 78.7 µM; in the assay with KM20L2 colon, above 100 µM; in the assay on LXFL 529 NSCLC it was above 100 µM; in the assay with SNB-78 CNS, above 100 µM. Also, the TGI with XF 498 CNS is above 100 µM.
